Entries after “also recorded” stand apart in the source; their conditions may differ. [5mC] = 5-methylcytosine
Assays:
[1] = tested on: E.G7-OVA; assay: prophylactic efficacy of OVA / OVA257-264 vaccination, E.G7-OVA model; format: in vivo, C57/BL6 mice; settings: LNA (encapsulated) forms; FIG. 35
Description: Vaccinations. B6 mice were vaccinated subcutaneously (SC) with […] per injection. Dosing schedules were either q7dx2 or q4dx4 and are indicated in the individual figure legends. CFA mixtures were very viscous and had to be given with a larger gauge syringe. For humoral studies, a prime (day 0) and boost (day 14) strategy was used and blood samples were collected at various times by tail nicking.
Efficacy studies. E.G7-OVA or EL-4 thymoma cell lines were used throughout the study. These cells were cultured in vitro according to established methods. For tumor studies, 2.5×106 E.G7-OVA cells were injected subcutaneously in […] of PBS containing 1% FCS. Tumor measurements were made by repeated perpendicular measurements of tumor dimensions and using the formula: […]
Full-length OVA and the immunodominant cytotoxic T lymphocyte (CTL) peptide epitope (OVA257-264) were used to evaluate cell mediated immune responses and the prophylactic and therapeutic efficacy of OVA vaccination against the E.G7-OVA transfected cell line, using LNA both as an adjuvant and as the basis for a cancer vaccine formulation. LNA formulations for this experiment were prepared using DSPC:Chol:DODAP:PEGCer14 at a ration of 25:45:20:10
The anti-tumor activity of OVA and OVA257-264 were examined against the murine thymoma cell line, E.G7-OVA, implanted subcutaneously (SC) in C57/BL6 mice. […] Given the activity observed with the protein or peptide alone, this dose and schedule represents a useful model to evaluate adjuvants designed to boost the immune response against OVA and/or OVA257-264.
To examine LNA formulations as adjuvants, the impact of three variables were evaluated on vaccination and efficacy in the prophylactic E.G7-OVA model: (1) the activity of free vs. encapsulated ODN 1, (2) phosphodiester (PO) vs phosphorothioate (PS) ODN, and (3) full-length OVA protein vs single-epitope peptide OVA257-264 (FIGS. 30A and B). In this set of studies, free and encapsulated ODN 1 was simply mixed with antigen and administered SC near the nape of the neck. ODN and antigen doses in these studies were […], respectively.

[2] = tested on: B16 cell target; assay: CTL response to B16 cell target after multiple epitope immunization; format: in vivo, C57BL/6 mice; settings: encapsulated PS-ODN 1m (POPC:Chol:DODMA:PEG-DMG) with TRP2 and Gp100 peptides or B16 lysate; 3 injections
Description: Targeting multiple antigens and MHC alleles might be achieved by using multiple recombinant antigen mixtures of synthetic peptide epitopes. To improve the immune response against these multi-epitope antigens several adjuvants are under assay. This experiment employs encapsulated PS-ODN 1 m using POPC:Chol:DODMA:PEG-DMG (25:45:20:10 molar ratio) in combination with two murine melanoma antigens TRP2 (H2Kb, […]) and Gp100 (H2Db, […]). C57BL/6 mice were injected 3 times with either each antigen, or both, in the presence of encapsulated PS-ODN 1 m. As positive control we used dendritic cells known to be potent in inducing CTL responses. B16 lysate containing multiple epitopes was also assayed either with ODN1m or DC for the ability to induce multi-epitope immunity. Immune response was assessed by the ability of CD8+ T cells to mediate cytotoxicity against tumor cells in an antigen-specific manner.

[3] = tested on: dendritic cells; assay: expansion of dendritic cells (CD11c, DEC205) in spleen, blood and lymph nodes; format: in vivo, ICR mice; settings: lipid encapsulated; single i.v. injection 20 mg/kg; versus PBS control = 100%; 20 mg/kg
Description: ICR mice were immunized with a single intravenous injection of encapsulated oligonucleotides at a dose of 20 mg/kg and the control ICR mouse was injected with PBS. […] Each of these markers are specific to dendritic cells though they may represent different cell sub-populations. In each of FIGS. 4 and 5 the control was plotted as equivalent to 100% and the effect of ODN1m for each backbone configuration was plotted as a percentage of that control.

[4] = tested on: B16/BL6 murine melanoma; assay: therapeutic anti-tumor efficacy, B-16 melanoma tumor model; format: in vivo, C57BI/6 mice; settings: lipid encapsulated (DSPC:CHOL:DODAP:PEGCer14); 20 mg/kg ODN i.v. every other day from day 4
Description: Anti-tumor efficacy induced by intravenous tail immunization was assessed in C57BI/6 (8 animals per group) in a therapeutic immunization model. Animals were challenged with a subcutaneous injection of 3.0×10^5 […] B16/BL6 murine melanoma expressing tumor cells on Day-0. Mice were then treated intravenously every other day starting on day 4 for 14 days at a dose of 20 mg/kg ODN. Mice were monitored every other day to assess tumor growth and weight gain. Control mice were injected with HBS on the same schedule described above. Oligonucleotides were encapsulated in a lipid particle having a lipid composition of DSPC: CHOL: DODAP:PEGCer14 each in a ratio of 25:45:20:10. Results from this efficacy experiments are detailed in FIGS. 16 and 17. Day 0 on each of the Figures is the day each animal was challenged with the tumor.

ODN1m: 5′-TAAZGTTGAGGGGCAT-3, SEQ ID NO: 4, Z = methylated cytosine (DNA TAACGTTGAGGGGCAT; DNA, [5mC] at 4, backbone not given here; tested with both phosphodiester and phosphorothioate backbones)
efficacy of ODN sequences [1]: strongest responses | CTL response [2]: a CTL response was raised against both antigens | expansion of CD11c positive dendritic cells [3]: stimulated the expansion of CD11c positive dendritic cells in spleen cells and whole blood cells but not in lymphoid tissue; also recorded: stimulated the expansion of CD11c positive cells in spleen and whole blood | reduction of tumor volume [4]: increased its efficacy in reducing tumor volume

— patent US20040013649A1, “Cancer vaccines and methods of using the same” (Inex Pharmaceuticals Corporation, priority 2002, published 2004)
